Measured values published in patent publication US11479604B2, “Immunomodulatory peptides and methods for modulating the immune system in a subject” (Recepta Biopharma S.A., priority 2017, dated 2022).
Entries after “also recorded” stand apart in the source; their conditions may differ.

How the values were obtained:
[1] = tested on: Myeloid DCs stimulated with recombinant mouse MIF; assay: Western blotting of MIF signalling in dendritic cells pre-treated with peptide; type: cell-based
Procedure: Protein lysates were separated by electrophoresis, and immunoblotting analyses were performed for: total AKT, total p44/42 MAPK (ERK1/2), total IKKα, total IkBα, total NF-kB p65, phospho-AKT (Ser473), phospho-ERK1/2 (Thr202/Tyr204), phospho-IKKα/β (Ser176/180), phospho-IkBα (Ser32) and phospho-NFkB p65 (Ser536). GAPDH was assayed for loading control. HRP-conjugated secondary antibodies were used, followed by incubation with the ECL substrate (Millipore, Billerica, Mass.). All primary and secondary antibodies were purchased from Cell Signaling Technologies (Beverly, Mass., USA). Anti-CD74 receptor was also assayed (Abcam, Cambridge, UK). Phosphorylation ratios were quantified using ImageJ software. Results are represented in arbitrary units normalized to untreated control lanes.
Early incubation with MIF increased p-Akt (Ser473). […] MIF also triggered p-ERK1/2 formation in DCs.

splenocytes = assay: Splenocyte cytokine production in melanoma-bearing treated mice (ELISA); type: in vivo; details: 300 μg i.p. 5 consecutive days
Procedure: Mice were challenged with 5×10^5 B16F10-Nex2 cells via the i.v. route. […] Peptides at 300 μg solubilized in 10 μl distilled H2O and 90 μl of PBS were injected via i.p. route per animal, for 5 consecutive days initiating one day after tumor cell challenge. Seventeen days after tumor challenge mice were sacrificed and spleens were removed. Splenocytes after incubation in hemolysis buffer were suspended in R10 medium and plated in 6-well plates and 10^6 cells/well. Cells were incubated for 72 h with or without tumor cell lysate (from 10^5 B16F10-Nex2 cells) in triplicate. The supernatants were collected, and cytokines measured by ELISA (FIG. 11).

B16F10-Nex2 cells = assay: Anti-melanoma antibodies in sera of treated mice; type: in vivo; details: 1/5 diluted sera; BSA treated or untreated tumor cells
[2] = tested on: T lymphocytes of lungs, spleen and lymph nodes; assay: Flow cytometry of Treg, T-CD4+ and T-CD8+ cells after prophylactic DC protocol; type: in vivo, mice
Procedure: On day 14, mice were inoculated i.v. with B16F10.Nex2 melanoma tumor cells and on day 29, lungs, spleen and cervical and axillary lymph nodes were examined for CD3+ cells, and the proportion of T-CD4+ and T-CD8+ cells.
The lungs were incubated with 2 mg/ml of collagenase for 40 min at 37° C. before maceration. The cell suspension was incubated with cold hemolytic buffer for 1 min and then centrifuged. The pellet was suspended with RPMI medium and counted. 1×10^6 Cells of each group were processed and stained using the Treg Detection Kit (Miltenyi Biotec, Cambridge, USA). Lymphocytes were characterized using anti-CD4 (FITC), anti-CD25 (PE) and anti-Foxp3 (APC). Samples were analyzed by flow cytometry using FACSCantoII (Becton Dickinson, San Jose, Calif., USA). Acquired data were analyzed using the FlowJo V10 (TreeStar Inc., Ashland, Oreg., USA). The percentages of Foxp3^+ in CD4^+CD25^+ lymphocytes are indicated.
The cell suspension was incubated with cold hemolytic buffer for 1 min and then centrifuged. The pellet was suspended with RPMI medium and counted. 1×10^6 Cells of each group were stained with anti-CD3 (PE) and anti-CD4 (FITC) or anti-CD3 (PE) and anti-CD8 (FITC). All antibodies used were purchase from Miltenyi Biotec, Cambridge, USA. Samples were analyzed by flow cytometry using FACSCantoII (Becton Dickinson, San Jose, Calif., USA). Acquired data were analyzed using the FlowJo V10 (TreeStar Inc., Ashland, Oreg., USA). The percentages of CD4^+ or CD8^+ in CD3^+ lymphocytes are indicated.

[3] = tested on: human monocyte-derived dendritic cells (mo-DC); assay: Membrane phenotype of human mo-DC from healthy donors; type: cell-based
Procedure: Peripheral blood mononuclear cells (PBMCs) were isolated by centrifugation over Ficoll-Paque Plus (GE Healthcare). After a 2 h-incubation in plastic 6-well plates, non-adherent cells were removed from culture and adherent cells (monocytes) were cultivated for 7 days in RPMI-1640 culture medium (Gibco, Grand Island, N.Y., USA), supplemented with 10% FCS (Gibco) plus antibiotic-antimycotic (Gibco) and in the presence of GM-CSF (50 ng/ml—Peprotech, Mexico) and IL-4 (50 ng/ml—Peprotech). At day 5 of culture TNF-α (50 ng/ml; Peprotech, Mexico) was added for mo-DC maturation.
Human cells were analyzed in a similar manner, but staining was performed in BSA-PBS, without EDTA. Antibodies against CD11c, CD14, CD80, CD83, CD86, HLA-ABC, HLA-DR, CCR7, PD-L1, conjugated with different fluorochromes and live/dead labeling (Molecular Probes, Oregon, USA) were used. Acquisition was performed in a FACSCanto II analyzer (BD Biosciences) and analyzed with the FlowJo Software X.10.07r2 (Tree Star).

[4] = tested on: LPS stimulated DCs characterized by CD11c+ MHC-II+; assay: Co-stimulatory markers of LPS stimulated murine bone-marrow DCs; type: cell-based
Text: Rb9 immunomodulation of murine bone-marrow dendritic cells (DCs) was also examined focusing on co-stimulatory markers.

[5] = tested on: B16F10-Nex2 melanoma cells; assay: Therapeutic adoptive transfer of peptide-stimulated dendritic cells, metastatic melanoma; type: in vivo, syngeneic mice; details: DCs administered 8 days after melanoma challenge; compared to unstimulated or Rb10A1 treated DCs
Text: DCs were inoculated s.c. in syngeneic mice, 8 days after the melanoma tumor cell challenge. The B16F10-Nex2 cell lysate was not used to prime DCs in this assay to avoid excess tumor antigen derived from tumor cell lysis in vivo, and a tolerogenic response. Lung nodules of melanoma cells injected i.v. and formed after 7 days and after 12 days, from 3 independent experiments were combined to represent colonization clusters for comparison with the therapeutic experiment of FIG. 6C.

[6] = prophylactic protocol with peptide-stimulated DCs

In the case of [CARGETARATFAYWGQGC], NH2 (C-C) [Rb9], the ERK1/2 phosphorylation ([1]; DCs pre-incubated with peptide 6 h, then rMIF) was “reduced p-ERK1/2”, the “Akt phosphorylation (Ser473)” value ([1]; DCs pre-incubated with peptide 6 h, then rMIF, early (2 min), vs rMIF alone) was “Phosphorylation increased even more” and the “NFkB p65 phosphorylation (Ser536)” value ([1]; DCs pre-stimulated 6 h, then recombinant-MIF, 5, 10 and 20 min) was “tended to attenuate the MIF response; also recorded: decreased intracellular NFkB p65 phosphorylation”. The “phosphorylation of IKKαβ and IkBα” value ([1]; DCs pre-stimulated 6 h, then recombinant-MIF, short incubation) was “tended to attenuate the MIF response; also recorded: decreased IKKαβ and IkBα”, the “IL-12 production in splenocytes” value (splenocytes; no stimulus necessary) was “comparable in the three groups” and the “IFN-gamma production in splenocytes” value (splenocytes; splenocytes with tumor cell lysate 72 h, relative to untreated control) was “increased”. For the same substance, the “IL-10 production in splenocytes” value (splenocytes; with tumor cell lysate) was “no effect”, the “TNF-alpha production in splenocytes” value (splenocytes; with tumor cell lysate) was “no effect” and the “IL-6 production in splenocytes” value (splenocytes; with tumor cell lysate, relative to untreated control) was “decreased”. For the same substance, the “reactivity of sera with B16F10-Nex2 cells, i.d. relative to i.p. administration” value (B16F10-Nex2 cells) was 4-5 times, the “T-CD4+ and T-CD8+ effector cells” value [2, 6] was “increased T-CD4+ and T-CD8+ effector cells” and the “Tregs (FoxP3+)” value [2, 6] was “reduced Tregs”. For the same substance, the “proportion of T-CD8+ to T-CD4+ cells” value ([2]; spleen and lymph nodes (except lungs), day 29, DCs stimulated by peptide) was “T-CD8+ cells greatly predominated over T-CD4+ effector cells”, the “expression of activation markers on immature mo-DC” value ([3]; 50 μg/mL at day 5, analysis 2 days later) was “enhanced the expression of activation markers” and the “expression of maturation markers on mo-DC with TNF-alpha” value ([3]; 50 μg/mL peptide + TNF-alpha 50 ng/mL at day 5) was “further enhancing the expression of maturation markers”. The CD40 expression [4] was “regulated CD40 expression”, the “expression of CD80 and CD86” value ([4]; Rb9 mainly at 50 μg/ml) was “significantly stimulated” and the “protection by peptide-stimulated DCs (lung nodules)” value [5] was “significant protection”.
